PMC9974934, “Bifunctional small molecules targeting PD-L1/CXCL12 as dual immunotherapy for cancer treatment” (Signal Transduction and Targeted Therapy, 2023)
Where two headings read alike, the source gives them in different places.

Experiments:
PD-1/PD-L1 interaction = molecular target: T1, PD-1/PD-L1 interaction (Homo sapiens, UniProt Q9NZQ7); test: PD-1/PD-L1 HTRF assay; assay type: biochemical; conditions: read-out: IC50, anti-PD-1/PD-L1 potency
T1 construct: purchased Cisbio 64ICP01PEG&64ICP01PEH

human CXCL12 = molecular target: T2, human CXCL12 (Homo sapiens, UniProt P48061); test: SPR binding to hCXCL12
T2 construct: purchased Sino Biological Biotics Inc 13511-HNCE-2
Experimental: (§1) SPR, ITC, CD assay. […] SPRi assay was carried out using PlexAray HT.

[1] = test system: CT-26 colon syngeneic tumor; test: In vivo efficacy in CT-26 colon syngeneic tumor model; set-up: species or system mouse; conditions: 75 mg/kg for 17 days
Excerpt: (§2) In vivo efficacy study in a melanoma model and CT26 tumor model. Protocols for animal experiments (B16-F10 and CT-26 tumor model) were approved by the NIACEC (National Institutional Animal Care & Ethical Committee) at SMU (Southern Medical University). C57BL/6 male mice (6-8 weeks old) were purchased from Liaoning Changsheng Biosciences. Briefly, A total of 2×10^5 B16-F10 melanoma cells or CT26 cells (1×10^6) were inoculated into mouse (in the right flank) according to protocols of tumor transplantation studies in mice. […] Tumor volume was measured with a traceable electronic digital caliper (every 2 days).
Figure. […] Then, sacrificed and tumors weights and volumes were measured. (A) Images of tumors and weight of tumors; (B) changes of body weights of mice during treatment; (C) Individual tumor growth curves over time (D) changes of tumor volume during treatment. *P < 0.05, **P < 0.01, and ****P < 0.0001 (n=3).

murine CXCL12 = molecular target: T3, murine CXCL12 (Mus musculus, UniProt P40224); test: SPR binding to mCXCL12
T3 construct: purchased Sino Biological Biotics Inc 50025-MNAE-2
Experimental: as §1

[2] = Creatine kinase isoenzyme assay; assay type: in vivo, mouse; conditions: mice
[3] = Pharmacokinetic study in male SD rats; assay type: in vivo, rat; conditions: for MRT last: read-out: MRT(0–t); for MRT inf: read-out: MRT(0–∞)
Experimental: Pharmacokinetic Study in Male SD Rats. Male SD rats (300–360 g) were purchased from Liaoning Changsheng Biotechnology Co., Ltd. Diet. […] The mobile phase consisted of a mixture of solvent A (acetonitrile) and solvent B (formic acid/ ultrapure water, 1:1000, v/v). The linear gradient program for the mobile phase was set as follows: 0 min 10% A; 0.5 min 30% A; 1 min 95% A; 2 min 95% A; 2.3 min 10% A. The flow rate of the mobile phase was 0.4 mL/min, and the injection volume was 2 μL. The XEVO TQD triple quadrupole mass spectrometer was equipped with an electrospray ionization (ESI) source; multiple reaction monitoring (MRM) mode was selected for quantitation. The Mass Lynx 4.1 software (Waters Corp.) was used for data acquisition. Mass spectral data were obtained in positive electrospray mode (ESI+) in MRM mode.

[4] = Serum biochemistry for liver and kidney function; assay type: in vivo, mouse; conditions: mice
B16-F10 melanoma tumors = test: In vivo efficacy in B16-F10 melanoma model; conditions: mouse B16-F10 model
Excerpt: as §2

[5] = test system: CXCL12-mediated cell migration, THP-1 cells; test: Transwell chemotaxis test in THP-1 cells; assay type: cell-based
[6] = H&E staining of mice organs; assay type: in vivo, mouse
[7] = test system: CXCL12-mediated Ca2+ cellular responses in THP-1 cells; test: Calcium flux assay in THP-1 cells; assay type: cell-based; conditions: spectrofluorometry
Experimental: Calcium flux assays. THP-1 cells were incubated with Fluo-4AM (Invitrogen, catalog number: F14201) calcium-dependent fluorophore for 0.5 h, washed and resuspended. […] Ca^2+ flux was measured (Ex = 488 nm; Em = 520 nm).

[8] = test system: HepG2 cells co-cultured with Jurkat T cells; test: HepG2 cell mortality in Jurkat T & HepG2 co-culture model; assay type: cell-based; conditions: CCK-8
Experimental: Assessment of HepG2 cell mortality rate (Cellular). Firstly, HepG2 cells were stimulated with human IFN-γ (Peprotech, catalog number: 300-02) to express hPD-L1 stably. Jurkat T cells were stimulated with PHA-P (Invivogen, catalog number: inh-phap). Then, HepG2 (5×10^4) and Jurkat T cells (5×10^4) were added to the co-cultured model. […] Finally, the Jurkat T cells were completely removed by washing the supernatant (200 μL) with cold PBS for 4 times. The mortality rate of HepG2 cells was determined by CCK-8 assay (Dojindo, CCK8, 500 test).

[9] = rat, plasma, iv, I.V. 1 mg/kg, mean ± SD
[10] = rat, plasma, po, P.O. 18 mg/kg, mean ± SD

T1 sequence (Q9NZQ7 19-238 limits assumed): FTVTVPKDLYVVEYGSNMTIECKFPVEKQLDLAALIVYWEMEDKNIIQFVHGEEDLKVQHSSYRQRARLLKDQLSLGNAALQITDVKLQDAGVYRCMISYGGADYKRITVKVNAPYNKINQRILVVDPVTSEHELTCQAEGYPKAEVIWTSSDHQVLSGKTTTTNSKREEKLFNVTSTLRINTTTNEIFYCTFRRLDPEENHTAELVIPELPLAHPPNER
T2 sequence (P48061 22-93): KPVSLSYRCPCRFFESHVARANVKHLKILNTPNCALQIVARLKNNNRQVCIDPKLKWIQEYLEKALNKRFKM
T3 sequence (P40224 22-93): as the sequence (P48061 22-93) above, with V18I, F70L counted along it

## COc1ccc(C(=O)/C=C/c2ccc(OCc3ccc(CNC(=O)CCNC(=O)C(C)(C)NCc4cc(Cl)c(OCc5cccc(-c6ccccc6)c5C)cc4OCc4cccc(C#N)c4)cc3)c(OC)c2)cc1 [CP11]
PD-1/PD-L1 interaction
  IC50: 0.87 µM

## COc1ccc(C(=O)/C=C/c2ccc(OCc3ccc(CNC(=O)CCCNC(=O)C4CCCCN4Cc4cc(Cl)c(OCc5cccc(-c6ccccc6)c5C)cc4OCc4cccc(C#N)c4)cc3)c(OC)c2)cc1 (centres unmarked) [CP18]
PD-1/PD-L1 interaction
  IC50: 0.107 µM
other
  melting point: 120.1 to 120.9 °C

## COc1ccc(C(=O)/C=C/c2ccc(OCc3ccc(CNC(=O)C4CCN(C(=O)C5CCCCN5Cc5cc(Cl)c(OCc6cccc(-c7ccccc7)c6C)cc5OCc5ccc(OC(F)(F)F)cc5)CC4)cc3)c(OC)c2)cc1 (centres unmarked) [CP7]
PD-1/PD-L1 interaction
  IC50: > 1 µM

## COc1ccc(C(=O)/C=C/c2ccc(OCc3ccc(CNC(=O)C4CCN(C(=O)C5CCCCN5Cc5cc(Cl)c(OCc6cccc(-c7ccccc7)c6C)cc5OCc5cccc(C#N)c5)CC4)cc3)c(OC)c2)cc1 (centres unmarked) [CP21]
Human CXCL12
  Kd: 0.16 µM
[1]
  In vivo antitumor efficacy: similarly high in vivo antitumor efficacy
Murine CXCL12
  Kd: 0.0765 µM
[2]
  Cardiotoxicity (creatine kinase isoenzyme assay): did not cause cardiotoxicity
[3]; P.O. 18 mg/kg, mean ± SD
  CL: 2347 ± 83.3 mL/min/kg
  Vz: 467.4 ± 184.8 L/kg
[3]; rat, plasma, iv, I.V. 1 mg/kg
  Tmax: 0.083 h
[3]; [9]
  AUC(0-inf): 2138 ± 18.3 ng·h/mL
  AUC(0-t): 2032 ± 11.4 ng·h/mL
  Cmax: 326 ± 58.1 ng/mL
  clearance: 8.33 mL/min/kg
  half-life: 12.4 ± 0.3 h
  MRT last: 11.3 ± 0.4 h
  MRT inf: 14 ± 0.5 h
[3]; rat, plasma, iv, I.V. 1 mg/kg, mean ± SD, read-out: Vz
  Vd: 8.4 ± 0.2 L/kg
[3]; [10]
  AUC(0-inf): 128 ± 4.6 ng·h/mL
  AUC(0-t): 128 ± 4.8 ng·h/mL
  Cmax: 20.5 ± 3.1 ng/mL
  Tmax: 6.3 ± 0.8 h
  half-life: 2.2 ± 0.8 h
  MRT last: 5.9 ± 0.2 h
  MRT inf: 6 ± 0.2 h
[4]
  Hepatotoxicity and nephrotoxicity (serum biochemistry): did not induce hepatotoxicity and nephrotoxicity
B16-F10 melanoma tumors
  Body weights of mice during treatment: did not change markedly
B16-F10 melanoma tumors; 75 and 125 mg/kg
  Tumor weights and volumes: dose-dependently decreased
B16-F10 melanoma tumors; oral 125 mg/kg
  Tumor growth inhibition (TGI): 58.5%
[5]
  CXCL12-mediated cell migration: dose-dependently inhibited
[6]
  Morphological aberration of organs (H&E staining): no apparent morphological aberration
[7]
  CXCL12-induced calcium responses: dose-dependently inhibited
[8]
  Death of HepG2 cells: dose-dependently promoted

## COc1ccc(C(=O)/C=C/c2ccc(OCc3ccc(CNC(=O)CCCNC(=O)C4CCCCN4Cc4cc(Cl)c(OCc5cccc(-c6ccccc6)c5C)cc4OCc4ccc(OC(F)(F)F)cc4)cc3)c(OC)c2)cc1 (centres unmarked) [CP8]
PD-1/PD-L1 interaction
  IC50: > 1 µM

## COc1ccc(C(=O)/C=C/c2ccc(OCc3ccc(CNC(=O)C4CCN(C(=O)C5CCCCN5Cc5ccc(OCc6cccc(-c7ccccc7)c6C)c(Br)c5)CC4)cc3)c(OC)c2)cc1 (centres unmarked) [CP3]
PD-1/PD-L1 interaction
  IC50: > 1 µM

## CCOC(=O)COc1cc(OCc2cccc(-c3ccccc3)c2C)c(Cl)cc1CN1CCCCC1C(=O)NCCC(=O)NCc1ccc(COc2ccc(/C=C/C(=O)c3ccc(OC)cc3)cc2OC)cc1 (centres unmarked) [CP13]
PD-1/PD-L1 interaction
  IC50: > 1 µM

## COc1ccc(C(=O)/C=C/c2ccc(OCc3ccc(CNC(=O)C4CCCCN4Cc4cc(Cl)c(OCc5cccc(-c6ccccc6)c5C)cc4OCc4ccc(OC(F)(F)F)cc4)cc3)c(OC)c2)cc1 (centres unmarked) [CP6]
PD-1/PD-L1 interaction
  IC50: > 1 µM

## COc1ccc(C(=O)/C=C/c2ccc(OCc3ccc(CNC(=O)CCNC(=O)C4CCCCN4Cc4ccc(OCc5cccc(-c6ccccc6)c5C)c(Br)c4)cc3)c(OC)c2)cc1 (centres unmarked) [CP5]
PD-1/PD-L1 interaction
  IC50: > 1 µM

## COc1ccc(C(=O)/C=C/c2ccc(OCc3ccc(CNC(=O)CCCNC(=O)C(C)(C)NCc4cc(Cl)c(OCc5cccc(-c6ccccc6)c5C)cc4OCc4cccc(C#N)c4)cc3)c(OC)c2)cc1 [CP9]
PD-1/PD-L1 interaction
  IC50: 0.101 µM

## COc1ccc(C(=O)/C=C/c2ccc(OCc3ccc(CNC(=O)CCCCNC(=O)C4CCCCN4Cc4ccc(OCc5cccc(-c6ccccc6)c5C)c(Br)c4)cc3)c(OC)c2)cc1 (centres unmarked) [CP1]
PD-1/PD-L1 interaction
  IC50: > 1 µM

## CCOC(=O)COc1cc(OCc2cccc(-c3ccccc3)c2C)c(Cl)cc1CN1CCCCC1C(=O)NCCCC(=O)NCc1ccc(COc2ccc(/C=C/C(=O)c3ccc(OC)cc3)cc2OC)cc1 (centres unmarked) [CP16]
PD-1/PD-L1 interaction
  IC50: > 1 µM

## COc1ccc(C(=O)/C=C/c2ccc(OCc3ccc(CNC(=O)C4CCCCN4Cc4cc(Cl)c(OCc5cccc(-c6ccccc6)c5C)cc4OCc4cccc(C#N)c4)cc3)c(OC)c2)cc1 (centres unmarked) [CP17]
PD-1/PD-L1 interaction
  IC50: 0.127 µM
other
  melting point: 128.1 to 128.9 °C

## COc1ccc(C(=O)/C=C/c2ccc(OCc3ccc(CNC(=O)C(C)(C)NCc4cc(Cl)c(OCc5cccc(-c6ccccc6)c5C)cc4OCc4cccc(C#N)c4)cc3)c(OC)c2)cc1 [CP10]
PD-1/PD-L1 interaction
  IC50: > 1 µM

## COc1ccc(C(=O)/C=C/c2ccc(OCc3ccc(CNC(=O)CCCCNC(=O)C4CCCCN4Cc4cc(Cl)c(OCc5cccc(-c6ccccc6)c5C)cc4OCc4cccc(C#N)c4)cc3)c(OC)c2)cc1 (centres unmarked) [CP19]
PD-1/PD-L1 interaction
  IC50: > 1 µM

## COc1ccc(C(=O)/C=C/c2ccc(OCc3ccc(CNC(=O)CCNC(=O)C4CCCCN4Cc4cc(Cl)c(OCc5cccc(-c6ccccc6)c5C)cc4OCc4cccc(C#N)c4)cc3)c(OC)c2)cc1 (centres unmarked) [CP20]
PD-1/PD-L1 interaction
  IC50: 0.0885 µM

## CCOC(=O)COc1cc(OCc2cccc(-c3ccccc3)c2C)c(Cl)cc1CN1CCCCC1C(=O)N1CCC(C(=O)NCc2ccc(COc3ccc(/C=C/C(=O)c4ccc(OC)cc4)cc3OC)cc2)CC1 (centres unmarked) [CP15]
PD-1/PD-L1 interaction
  IC50: > 1 µM

## COc1ccc(C(=O)/C=C/c2ccc(OCc3ccc(CNC(=O)CCCCNC(=O)C(C)(C)NCc4cc(Cl)c(OCc5cccc(-c6ccccc6)c5C)cc4OCc4cccc(C#N)c4)cc3)c(OC)c2)cc1 [CP12]
PD-1/PD-L1 interaction
  IC50: > 1 µM

## CCOC(=O)COc1cc(OCc2cccc(-c3ccccc3)c2C)c(Cl)cc1CN1CCCCC1C(=O)NCc1ccc(COc2ccc(/C=C/C(=O)c3ccc(OC)cc3)cc2OC)cc1 (centres unmarked) [CP14]
PD-1/PD-L1 interaction
  IC50: > 1 µM

## COc1ccc(C(=O)/C=C/c2ccc(OCc3ccc(CNC(=O)C4CCCCN4Cc4ccc(OCc5cccc(-c6ccccc6)c5C)c(Br)c4)cc3)c(OC)c2)cc1 (centres unmarked) [CP2]
PD-1/PD-L1 interaction
  IC50: > 1 µM
other
  melting point: 124.8 to 125.9 °C

## COc1ccc(C(=O)/C=C/c2ccc(OCc3ccc(CNC(=O)CCCNC(=O)C4CCCCN4Cc4ccc(OCc5cccc(-c6ccccc6)c5C)c(Br)c4)cc3)c(OC)c2)cc1 (centres unmarked) [CP4]
PD-1/PD-L1 interaction
  IC50: > 1 µM
